Assay results as given in patent publication US4346087A, “Antibacterial surface active agent containing azaalkenelactam” (priority 1979, dated 1982).
Values after ≈ are worked out from the molar mass of the structure shown. Read-outs that look alike come from different tables or passages of the source.

How the values were obtained:
Format in all cases: cell-based
Escherichia coli NIHJ = experiment: MIC against Escherichia coli NIHJ
Source text: (§1) Below are described the antibacterial activities of the compounds in the compositions according to this invention.
(§2) The testing method complied with the standard method of Japan Sociaty of Chemotherapy.

[1] = system: Staphylococcus aureus FDA 209P; experiment: MIC against Staphylococcus aureus FDA 209P
Source text: as §1, §2

[2] = system: Desulfovibrio desulfuricans IFO 13699; experiment: MIC against Desulfovibrio desulfuricans
Source text: as §1, §2

[3] = Escherichia coli, Table 2, derivatives having a carboxylate radical, heart infusion agar, 37° C., 24 hours, read-out: MIC
[4] = Staphylococcus aureus, FDA209P, 24 h
[5] = Desulfovibrio desulfuricans, IFO13699, 24 h
[6] = Table 2, derivatives having a carboxylate radical, heart infusion agar, 37° C., 24 hours

Compound | MIC (Escherichia coli NIHJ; [6]) | MIC [1] | MIC [2] | MIC (Escherichia coli NIHJ) | other results
CCCCCCCCc1ccc(OCCOC(C)COC(C)CN2CC[N+](CC(=O)[O-])=C(C)CC2=O)cc1 (stereo not drawn) | – | – | – | – | MIC (Escherichia coli NIHJ; [3]): 800 µg/mL (≈ 1500 µM); MIC [1, 4]: 50 µg/mL (≈ 93.9 µM); MIC [2, 5]: 50 µg/mL (≈ 93.9 µM)
CCCCCCC(O)CC=CCCCCCCCC(=O)OC(C)CN1CCC[N+](CC(=O)[O-])=C(C)CC1=O (stereo not drawn) | – | – | – | – | MIC (Escherichia coli NIHJ; [3]): 1600 µg/mL (≈ 2980 µM); MIC [1, 4]: 50 µg/mL (≈ 93.2 µM); MIC [2, 5]: 25 µg/mL (≈ 46.6 µM)
CCCCCCCCCCCCCCNCCN1CC[N+](C(C)C(=O)[O-])=CCC(C)C1=O (stereo not drawn) | – | – | – | – | MIC (Escherichia coli NIHJ; Escherichia coli, 24 h): 100 µg/mL (≈ 221 µM); MIC [1, 4]: 6.25 µg/mL (≈ 13.8 µM); MIC [2, 5]: 6.25 µg/mL (≈ 13.8 µM)
1-(2-hydroxy)dodecyl-3-methyl-1-aza-5-azoniacyclooct-4-en-2-one-5-acetate | 1600 µg/mL | 100 µg/mL | 50 µg/mL | – | –
1-(2-hydroxyhexadecyl)aminoethyl-3-methyl-1-aza-5-azoniacyclooct-4-en-2-one-5-acetate | – | 12.5 µg/mL | 6.25 µg/mL | 100 µg/mL | –
1-behenoyloxypropyl-3-methyl-1-aza-5-azoniacyclooct-4-en-2-one-5-acetate | – | 50 µg/mL | 25 µg/mL | 100 µg/mL | –
1-behenoyloxypropyl-4-methyl-1-aza-5-azoniacyclooct-4-en-2-one-5-acetate | 3200 µg/mL | 100 µg/mL | 50 µg/mL | – | –
1-coconutalkyl-4-methyl-1-aza-5-azoniacyclooct-4-en-2-one-5-acetate | 3200 µg/mL | 200 µg/mL | 12.5 µg/mL | – | –
1-coconutalkyl-4-methyl-3,6,7,8-tetrahydro-1,5-diazocin-2-one [Example 15] | – | 50 µg/mL | 6.25 µg/mL | – | MIC (Escherichia coli NIHJ; Table 1, azaalkenelactams, heart infusion agar, 37° C., 24 hours): 1600 µg/mL
1-hydroxyethyl-2-undecylimidazolineumbetaine [reference compound] | ≥ 10000 µg/mL | – | 400 µg/mL | – | MIC [1, 6]: 3600 µg/mL
1-nonylphenylpoly(2 moles)oxyethyleneoxyethyl-3,3-dimethyl-1-aza-5-azoniacyclooct-4-en-2-one-5-acetate | – | 100 µg/mL | 50 µg/mL | 400 µg/mL | –
1-octadecylaminopropyl-4-methyl-1-aza-5-azoniacyclooct-4-en-2-one-5-propionate | – | 6.25 µg/mL | 6.25 µg/mL | 100 µg/mL | –
4-(2-hydroxyhexadecyl)aminoethyl-6-methyl-1-azonia-4-azacyclohept-7-en-5-one-1-acetate | – | 12.5 µg/mL | – | 100 µg/mL | MIC [2, 6]: 3.12 µg/mL
4-behenoyloxypropyl-6-methyl-2,3,6,7-tetrahydro-1,4-diazocin-5-one [Example 68] | – | 100 µg/mL | 25 µg/mL | 200 µg/mL | –
4-behenoyloxypropyl-6-methyl-4aza-1-azoniacyclooct-8-en-5-one-1-acetate | 800 µg/mL | 200 µg/mL | 25 µg/mL | – | –
4-isostearamidoethyl-7-methyl-1-azonia-4-azacyclohept-7-en-5-one-1-acetate | 3200 µg/mL | 50 µg/mL | 25 µg/mL | – | –
4-methylbenzylpoly(2 moles)oxypropyleneoxypropyl-6-methyl-2,3,6,7-tetrahydro-1,4-diazocin-5-one [Example 67] | – | 200 µg/mL | 50 µg/mL | 400 µg/mL | –
4-methylbenzylpoly(2 moles)oxypropyleneoxypropyl-6-methyl-4-aza-1-azoniacyclooct-8-en-5-one-1-acetate | 800 µg/mL | 400 µg/mL | 25 µg/mL | – | –
4-octoxy(2-hydroxy)propyl-7-methyl-1-azonia-4-azacyclohept-7-en-5-one-1-acetate | 800 µg/mL | 100 µg/mL | 25 µg/mL | – | –
4-octoxy(2-hydroxy)propyl-7-methyl-3,6-dihydro-2H-1,4-diazepin-5-one [Example 31] | – | 50 µg/mL | 50 µg/mL | 400 µg/mL | –
